Key:
Type in all cases: in vivo
[1] = tested on: Italian ryegrass (Lolium multiflorum); assay: Test B pre-/postemergence plant response
Excerpt: (§1) Seeds of plant species selected from bamyardgrass (Echinochloa crus-galli), kochia (Kochia scoparia), ragweed (common ragweed, Ambrosia elatior), Italian ryegrass (Lolium multiflorum), large (Lg) crabgrass (Digitaria sanguinalis), giant foxtail (Setaria faberii), momingglory (Ipomoea spp.), pigweed (Amaranthus retroflexus), velvetleaf (Abutilon theophrasti), wheat (Triticum aestivum), and corn (Zea mays) were planted into a blend of loam soil and sand and treated preemergence with a directed soil spray using test chemicals formulated in a non-phytotoxic solvent mixture which included a surfactant. At the same time, plants selected from these crop and weed species and also blackgrass (Alopecurus myosuroides), and galium (catchweed bedstraw, Galium aparine) were planted in pots containing the same blend of loam soil and sand and treated with postemergence applications of test chemicals formulated in the same manner. Plants ranged in height from 2 to 10 cm and were in the one- to two-leaf stage for the postemergence treatment. Treated plants and untreated controls were maintained in a greenhouse for approximately 10 days, after which time all treated plants were compared to untreated controls and visually evaluated for injury. Plant response ratings, summarized in Table B, are based on a 0 to 100 scale where 0 is no effect and 100 is complete control. A dash (-) response means no test result.

[2] = tested on: barnyardgrass (Echinochloa crus-galli); assay: Test B pre-/postemergence plant response
Excerpt: as §1

corn (Zea mays) = assay: Test B pre-/postemergence plant response
Excerpt: as §1

[3] = tested on: giant foxtail (Setaria faberii); assay: Test B pre-/postemergence plant response
Excerpt: as §1

kochia (Kochia scoparia) = assay: Test B pre-/postemergence plant response
Excerpt: as §1

[4] = tested on: pigweed (Amaranthus retroflexus); assay: Test B pre-/postemergence plant response
Excerpt: as §1

[5] = tested on: ragweed (common ragweed, Ambrosia elatior); assay: Test B pre-/postemergence plant response
Excerpt: as §1

[6] = tested on: wheat (Triticum aestivum); assay: Test B pre-/postemergence plant response
Excerpt: as §1

[7] = tested on: blackgrass (Alopecurus myosuroides); assay: Test B postemergence plant response
In short: (§2)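 Visual injury ratings, 0 = no effect to 100 = complete control, versus untreated controls approximately 10 days after postemergence spraying in greenhouse. Plants were at one- to two-leaf stage, 2 to 10 cm tall, in loam soil/sand blend; a dash denotes no result.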

[8] = tested on: galium (catchweed bedstraw, Galium aparine); assay: Test B postemergence plant response
In short: as §2

[9] = tested on: barnyardgrass (Echinochloa crus-galli); assay: Test C flooded paddy test plant response; details: Flood, 250 g ai/ha; scale of 0 to 100 where 0 is no effect and 100 is complete control; 13 to 15 days
In short: (§3)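 Greenhouse paddy assay, 13–15 days. Treatment into 3 cm floodwater over 2-leaf plants; visual 0–100 rating against controls.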

[10] = tested on: ducksalad (Heteranthera limosa); assay: Test C flooded paddy test plant response; details: Flood, 250 g ai/ha; scale of 0 to 100 where 0 is no effect and 100 is complete control; 13 to 15 days
In short: as §3

rice (Oryza sativa) = assay: Test C flooded paddy test plant response; details: Flood, 250 g ai/ha; scale of 0 to 100 where 0 is no effect and 100 is complete control; 13 to 15 days
In short: as §3

[11] = tested on: small-flower umbrella sedge (Cyperus difformis); assay: Test C flooded paddy test plant response; details: Flood, 250 g ai/ha; scale of 0 to 100 where 0 is no effect and 100 is complete control; 13 to 15 days
In short: as §3

[12] = 31 g ai/ha, Preemergence, 0 to 100 scale where 0 is no effect and 100 is complete control
[13] = 125 g ai/ha, postemergence, 0 to 100 scale, 0 no effect, 100 complete control
[14] = 31 g ai/ha, Postemergence, 0 to 100 scale, 0 no effect, 100 complete control
[15] = Preemergence, 125 g ai/ha, 0 to 100 scale where 0 is no effect and 100 is complete control
[16] = Postemergence, 500 g ai/ha, 0 to 100 scale (0 no effect, 100 complete control)
[17] = Preemergence, 500 g ai/ha, 0 to 100 scale where 0 is no effect and 100 is complete control
[18] = Preemergence, 125 g ai/ha, 0 to 100 scale (0 no effect, 100 complete control)

SMILES	Plant response rating, Ryegrass, Italian [1, 12]	Plant response rating, Ryegrass, Italian [1, 13]	Plant response rating, Barnyardgrass [2, 14]	Plant response rating, Barnyardgrass [2, 12]	Plant response rating, Barnyardgrass [2, 13]	Plant response rating, Corn (corn (Zea mays); [14])	Plant response rating, Corn (corn (Zea mays); [13])	Plant response rating, Foxtail, Giant [3, 14]	Plant response rating, Foxtail, Giant [3, 12]	Plant response rating, Foxtail, Giant [3, 13]	Plant response rating, Kochia (kochia (Kochia scoparia); [13])	Plant response rating, Pigweed [4, 13]	Plant response rating, Ragweed [5, 13]	Plant response rating, Wheat [6, 13]	Plant response rating, Blackgrass [7, 13]	Plant response rating, Galium [8, 13]	Barnyardgrass plant response rating [9]	Ducksalad plant response rating [10]	Rice plant response rating (rice (Oryza sativa))	Sedge, Umbrella plant response rating [11]	also measured
Clc1cnc(Oc2ccccc2-c2nnc(C3CC3)o2)nc1 [Compound 122]	0	0	0	0	0	0	0	0	0	0	20	20	10	20	0	20	0	0	0	0	Plant response rating, Barnyardgrass [2, 15]: 0; Plant response rating, Foxtail, Giant [3, 15]: 0; Plant response rating, Kochia (kochia (Kochia scoparia); [12]): 0; Plant response rating, Kochia (kochia (Kochia scoparia); [15]): 10; Plant response rating, Pigweed [4, 12]: 10; Plant response rating, Ragweed [5, 12]: 0; Plant response rating, Blackgrass [7, 14]: 0
CC(C)n1ncnc1-c1ccccc1Oc1ncc(Cl)cn1 [Compound 123]		0			0		0			0	0	0	0	0	0	0	0	0	0	30	Plant response rating, Ryegrass, Italian [1, 16]: 0; Plant response rating, Ryegrass, Italian [1, 17]: 0; Plant response rating, Barnyardgrass [2, 16]: 0; Plant response rating, Barnyardgrass [2, 15]: 0; Plant response rating, Barnyardgrass [2, 17]: 0; Plant response rating, Corn (corn (Zea mays); [16]): 0; Plant response rating, Foxtail, Giant [3, 16]: 0; Plant response rating, Foxtail, Giant [3, 15]: 0; Plant response rating, Foxtail, Giant [3, 17]: 0; Plant response rating, Kochia (kochia (Kochia scoparia); [16]): 0; Plant response rating, Kochia (kochia (Kochia scoparia); [15]): 0; Plant response rating, Kochia (kochia (Kochia scoparia); [17]): 0; Plant response rating, Pigweed [4, 16]: 0; Plant response rating, Pigweed [4, 17]: 0; Plant response rating, Ragweed [5, 16]: 0; Plant response rating, Ragweed [5, 17]: 0; Plant response rating, Wheat [6, 16]: 0; Plant response rating, Blackgrass [7, 16]: 0; Plant response rating, Galium [8, 16]: 0
Fc1ccc(-c2cc(C(F)(F)F)no2)c(Oc2ncc(Cl)cn2)c1 [Compound 124]	0	0	0	0	20	0	10	0	20	20	80	90	20	0	30	100	0	80	0	85	Ryegrass, Italian plant response rating [1, 18]: 10; Barnyardgrass plant response rating [2, 18]: 30; Foxtail, Giant plant response rating [3, 18]: 100; Plant response rating, Kochia (kochia (Kochia scoparia); [12]): 10; Kochia plant response rating (kochia (Kochia scoparia); [18]): 60; Plant response rating, Pigweed [4, 12]: 40; Pigweed plant response rating [4, 18]: 100; Plant response rating, Ragweed [5, 12]: 0; Ragweed plant response rating [5, 18]: 10; Plant response rating, Blackgrass [7, 14]: 0
Fc1ccc(-c2cc(C(F)(F)F)no2)c(Oc2ncc(Br)cn2)c1 [Compound 125]	0	10	10	0	30	0	10	0	10	20	80	90	20	0	30	100	0	80	0	90	Ryegrass, Italian plant response rating [1, 18]: 10; Barnyardgrass plant response rating [2, 18]: 50; Foxtail, Giant plant response rating [3, 18]: 90; Plant response rating, Kochia (kochia (Kochia scoparia); [12]): 0; Kochia plant response rating (kochia (Kochia scoparia); [18]): 40; Plant response rating, Pigweed [4, 12]: 0; Pigweed plant response rating [4, 18]: 80; Plant response rating, Ragweed [5, 12]: 0; Ragweed plant response rating [5, 18]: 0; Plant response rating, Blackgrass [7, 14]: 10
FC(F)(F)c1cc(-c2c(Cl)cccc2Oc2ncc(Cl)cn2)on1 [Compound 126]	40	100	80	90	100	20	70	60	100	90	90	100	40	40	90	100	95	100	75	100	Ryegrass, Italian plant response rating [1, 18]: 100; Barnyardgrass plant response rating [2, 18]: 100; Foxtail, Giant plant response rating [3, 18]: 100; Plant response rating, Kochia (kochia (Kochia scoparia); [12]): 80; Kochia plant response rating (kochia (Kochia scoparia); [18]): 90; Plant response rating, Pigweed [4, 12]: 100; Pigweed plant response rating [4, 18]: 100; Plant response rating, Ragweed [5, 12]: 10; Ragweed plant response rating [5, 18]: 10; Plant response rating, Blackgrass [7, 14]: 60
FC(F)(F)c1cc(-c2c(Cl)cccc2Oc2ncc(Br)cn2)on1 [Compound 127]	30	90	30	70	100	20	50	50	100	90	90	100	50	20	90	100	50	100	60	100	Ryegrass, Italian plant response rating [1, 18]: 90; Barnyardgrass plant response rating [2, 18]: 90; Foxtail, Giant plant response rating [3, 18]: 100; Plant response rating, Kochia (kochia (Kochia scoparia); [12]): 80; Kochia plant response rating (kochia (Kochia scoparia); [18]): 90; Plant response rating, Pigweed [4, 12]: 100; Pigweed plant response rating [4, 18]: 100; Plant response rating, Ragweed [5, 12]: 10; Ragweed plant response rating [5, 18]: 30; Plant response rating, Blackgrass [7, 14]: 30

— US10131652B2, “Pyrimidinyloxy benzene derivatives as herbicides” (E. I. DU PONT DE NEMOURS AND COMPANY, priority 2014, dated 2018)
